The values that follow are results of earlier work, collected in publication PMC8000448, “Inhibitory Effects of Schisandra Lignans on Cytochrome P450s and Uridine 5′-Diphospho-Glucuronosyl Transferases in Human Liver Microsomes” (Pharmaceutics, 2021).

Where two headings read alike, the source gives them in different places. Where only a bound is given, the exact number is not on record here.

In series [1] the test system is recombinant CYP3A4. As to conditions: recombinant CYP3A4 isoform; read-out: IC50, CYP3A-mediated midazolam 1′-hydroxylation; cited from earlier work.
The next series deals with recombinant CYP2C19. Also noted: method as in PMID 24855828. Conditions: read-out: IC50, CYP2C19-catalyzed omeprazole hydroxylation; cited from earlier work.
Series [2] has as its system CYP3A. Conditions: rats; cited from earlier work.
Series [3] deals with recombinant CYP3A4. As to conditions: rCYP3A4, fluorescent substrate; cited from earlier work.
For series [4], the target named is CYP3A. Conditions: read-out: Ki, CYP3A-mediated testosterone hydroxylation; cited from earlier work.
Another series deals with CYP1A2. Also noted: method as in PMID 15342469. Conditions: cited from earlier work.
A further series relates to CYP2C9. The arrangement: method as in PMID 15342469. Conditions: cited from earlier work.
Another series relates to CYP2C19. The arrangement: method as in PMID 15342469. As to conditions: cited from earlier work.
Another series has as its system CYP2D6. The arrangement: method as in PMID 15342469. As to conditions: cited from earlier work.
The subject of series [5] is CYP3A. Also noted: method as in PMID 15342469. Conditions: read-out: IC50, CYP3A-mediated testosterone hydroxylase activity; cited from earlier work.

The IC50 is the concentration needed to halve the response being measured. For the compound `COc1cc2c(c(OC)c1OC)-c1c(cc3c(c1OC)OCO3)[C@H](OC(=O)c1ccccc1)[C@@](C)(O)[C@@H](C)C2` [gomisin G, reference compound], the IC50 in the series with recombinant CYP3A4 [1] was 0.19 µM.
As to `COc1cc2c(c(OC)c1OC)-c1c(cc(OC)c(OC)c1OC)C[C@H](C)[C@H](C)C2` [schisandrin A, reference compound], the IC50 with recombinant CYP2C19 is 86.4 µM. The “Plasma concentrations of midazolam” value in the series on CYP3A [2] is given as “markedly increases”.
By Ki is commonly meant a measure of affinity in units of concentration, obtained from inhibition or displacement. For the compound gomisin A, the half-inhibitory concentration (IC50) in the series with recombinant CYP3A4 [1] was 1.86 µM; in the series on recombinant CYP3A4 [3], 1.39 µM; in the series with CYP1A2, greater than 10 µM; in the series with CYP2C9, greater than 10 µM; in the series on CYP2C19, greater than 10 µM; with CYP2D6, greater than 10 µM. Further, on CYP3A [4], the inhibitory constant (Ki) is 1.01 µM.
In the case of gomisin B, the IC50 with CYP3A [5] was 0.26 to 0.62 µM; with CYP1A2, greater than 10 µM; in the series on CYP2C9 it was greater than 10 µM; in the series on CYP2C19, greater than 10 µM; in the series on CYP2D6, greater than 10 µM.
